We go through eleven compounds from PubChem BioAssay AID2197 (Vanderbilt High Throughput Screening Facility, 2009).

Activity calls are given as the source filed them. How the calls were made is not given here.

The target in one assay is Metabotropic glutamate receptor 4 (Homo sapiens) (UniProt Q14833). As to the kind of experiment: PubChem AID 2197. The conditions noted are these: CHO hmGluR4/Gqi5 calcium mobilization, PAM potency. Background: A change in cytosolic calcium serves as a functional read-out for many receptors and channels.
Chain of Metabotropic glutamate receptor 4 (Homo sapiens) (Q14833 whole entry, looked up): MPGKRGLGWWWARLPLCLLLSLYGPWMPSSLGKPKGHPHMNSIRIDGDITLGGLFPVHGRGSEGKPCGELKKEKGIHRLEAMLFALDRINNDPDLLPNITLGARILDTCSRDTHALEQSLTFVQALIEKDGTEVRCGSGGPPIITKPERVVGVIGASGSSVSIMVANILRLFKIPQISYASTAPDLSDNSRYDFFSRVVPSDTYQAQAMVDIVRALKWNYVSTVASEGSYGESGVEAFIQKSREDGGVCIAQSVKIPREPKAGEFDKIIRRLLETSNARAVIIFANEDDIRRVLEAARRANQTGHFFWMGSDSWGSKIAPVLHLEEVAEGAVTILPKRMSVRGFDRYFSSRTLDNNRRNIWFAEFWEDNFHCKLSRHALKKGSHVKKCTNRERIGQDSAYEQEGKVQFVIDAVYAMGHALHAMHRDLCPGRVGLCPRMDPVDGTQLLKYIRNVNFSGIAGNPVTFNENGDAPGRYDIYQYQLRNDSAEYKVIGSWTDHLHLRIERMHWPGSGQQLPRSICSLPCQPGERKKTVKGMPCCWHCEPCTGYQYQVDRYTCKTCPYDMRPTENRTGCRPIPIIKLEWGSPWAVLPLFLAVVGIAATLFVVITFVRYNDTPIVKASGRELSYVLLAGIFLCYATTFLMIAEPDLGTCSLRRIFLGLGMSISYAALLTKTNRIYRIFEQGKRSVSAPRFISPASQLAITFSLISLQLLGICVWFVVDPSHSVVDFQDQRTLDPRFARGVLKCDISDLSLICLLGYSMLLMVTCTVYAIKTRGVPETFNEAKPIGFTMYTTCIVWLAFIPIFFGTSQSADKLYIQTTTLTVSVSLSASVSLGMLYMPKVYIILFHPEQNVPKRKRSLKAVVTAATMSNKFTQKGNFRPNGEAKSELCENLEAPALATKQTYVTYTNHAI
In the case of `O=C(Nc1ccc(F)c(C(F)(F)F)c1)c1ccccn1`, the EC50 (commonly the concentration at which the effect is half-maximal) is 1530 nM.

For `COc1cc(NC(=O)c2ccccn2)ccc1F`, the EC50 was 776 nM. `COc1ccc(NC(=O)c2ccccn2)cc1Cl`: the EC50 is 1050 nM. For the compound `O=C(Nc1ccc(Cl)c(Cl)c1)c1ccccn1`, the EC50 was 1370 nM. Turning to `O=C(Nc1cccc(Cl)c1)c1ccccn1`, the 50% effective concentration (EC50) was 1090 nM. Consider `COc1cc(NC(=O)c2ccccn2)ccc1C`, for which the EC50 is 562 nM. Turning to `O=C(Nc1ccc(Cl)c(C(F)(F)F)c1)c1ccccn1`, the half-maximal effective concentration (EC50) was 2050 nM. For the compound `O=C(Nc1ccc(Cl)c(Cl)c1)c1ccncn1`, the concentration for a half-maximal effect (EC50) is 2840 nM.

Still in this assay, the particulars now being: CHO hmGluR4/Gqi5 calcium mobilization, PAM potency; at 30.1 µM (top of the series).
For `O=C(Nc1cccc(C(F)(F)F)n1)c1ccccn1`, the “% glutamate max response” value was “inactive”. On the same count and under the same terms, for `O=C(Nc1ccc(N2CCCS2(=O)=O)cc1)c1ccccn1` the value was “inactive”; for `COc1cc(NC(=O)c2ccccn2)ncn1`, “inactive”.
